Results published in PubChem BioAssay (NCI).
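1) Cells in 96-well plates. 2) Compound, 48 h, 5 concentrations. 3) Linear interpolation between surrounding doses. 4) Unreached endpoint = highest concentration. Definition used: TGI = concentration required for complete inhibition of growth.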

Columns and labels:
Experiment in all cases: NCI anticancer screen, dose series, 48 h
786-0 renal = tested on: 786-0 renal
A498 renal = tested on: A498 renal
A549 NSCLC = tested on: A549 NSCLC
ACHN renal = tested on: ACHN renal
BT-549 breast = tested on: BT-549 breast
CAKI-1 renal = tested on: CAKI-1 renal
COLO 205 colon = tested on: COLO 205 colon
DU-145 prostate = tested on: DU-145 prostate
EKVX NSCLC = tested on: EKVX NSCLC
HCT-116 colon = tested on: HCT-116 colon
HCT-15 colon = tested on: HCT-15 colon
HL-60(TB) leukemia = tested on: HL-60(TB) leukemia
HOP-62 NSCLC = tested on: HOP-62 NSCLC
HOP-92 NSCLC = tested on: HOP-92 NSCLC
HS 578T breast = tested on: HS 578T breast
HT29 colon = tested on: HT29 colon
IGROV1 ovarian = tested on: IGROV1 ovarian
K-562 leukemia = tested on: K-562 leukemia
KM12 colon = tested on: KM12 colon
LOX IMVI melanoma = tested on: LOX IMVI melanoma
M14 melanoma = tested on: M14 melanoma
MALME-3M melanoma = tested on: MALME-3M melanoma
MCF7 breast = tested on: MCF7 breast
MDA-MB-231 breast = tested on: MDA-MB-231 breast
MDA-MB-435 = tested on: MDA-MB-435
MDA-N = tested on: MDA-N
MOLT-4 leukemia = tested on: MOLT-4 leukemia
NCI-H226 lung = tested on: NCI-H226 lung
NCI-H23 lung = tested on: NCI-H23 lung
NCI-H460 lung = tested on: NCI-H460 lung
NCI-H522 lung = tested on: NCI-H522 lung
NCI/ADR-RES ovarian = tested on: NCI/ADR-RES ovarian
OVCAR-3 ovarian = tested on: OVCAR-3 ovarian
OVCAR-4 ovarian = tested on: OVCAR-4 ovarian
OVCAR-5 ovarian = tested on: OVCAR-5 ovarian
OVCAR-8 ovarian = tested on: OVCAR-8 ovarian
PC-3 prostate = tested on: PC-3 prostate
RPMI-8226 leukemia = tested on: RPMI-8226 leukemia
RXF 393 renal = tested on: RXF 393 renal
SF-268 CNS = tested on: SF-268 CNS
SF-295 CNS = tested on: SF-295 CNS
SF-539 CNS = tested on: SF-539 CNS
SK-MEL-2 melanoma = tested on: SK-MEL-2 melanoma
SK-MEL-28 melanoma = tested on: SK-MEL-28 melanoma
SK-MEL-5 melanoma = tested on: SK-MEL-5 melanoma
SK-OV-3 ovarian = tested on: SK-OV-3 ovarian
SN12C renal = tested on: SN12C renal
SNB-19 CNS = tested on: SNB-19 CNS
SNB-75 CNS = tested on: SNB-75 CNS
SR leukemia = tested on: SR leukemia
SW-620 colon = tested on: SW-620 colon
T-47D breast = tested on: T-47D breast
TK-10 renal = tested on: TK-10 renal
U251 CNS = tested on: U251 CNS
UACC-257 melanoma = tested on: UACC-257 melanoma
UACC-62 melanoma = tested on: UACC-62 melanoma
UO-31 renal = tested on: UO-31 renal
CCRF-CEM leukemia = tested on: CCRF-CEM leukemia

Measured: TGI

CC(C)NC1(C(N)=O)CCN(Cc2ccccc2)CC1
> 100 µM: 786-0 renal | A498 renal | A549 NSCLC | ACHN renal | BT-549 breast | CAKI-1 renal | COLO 205 colon | DU-145 prostate | EKVX NSCLC | HCT-116 colon | HCT-15 colon | HL-60(TB) leukemia | HOP-62 NSCLC | HOP-92 NSCLC | HS 578T breast | HT29 colon | IGROV1 ovarian | K-562 leukemia | KM12 colon | LOX IMVI melanoma | M14 melanoma | MALME-3M melanoma | MCF7 breast | MDA-MB-231 breast | MDA-MB-435 | MDA-N | MOLT-4 leukemia | NCI-H226 lung | NCI-H23 lung | NCI-H460 lung | NCI-H522 lung | NCI/ADR-RES ovarian | OVCAR-3 ovarian | OVCAR-4 ovarian | OVCAR-5 ovarian | OVCAR-8 ovarian | PC-3 prostate | RPMI-8226 leukemia | RXF 393 renal | SF-268 CNS | SF-295 CNS | SF-539 CNS | SK-MEL-2 melanoma | SK-MEL-28 melanoma | SK-MEL-5 melanoma | SK-OV-3 ovarian | SN12C renal | SNB-19 CNS | SNB-75 CNS | SR leukemia | SW-620 colon | T-47D breast | TK-10 renal | U251 CNS | UACC-257 melanoma | UACC-62 melanoma | UO-31 renal

COc1ccc(N)c(C(=O)CCNC(C)=O)c1
> 100 µM: 786-0 renal | A498 renal | A549 NSCLC | ACHN renal | BT-549 breast | CAKI-1 renal | CCRF-CEM leukemia | COLO 205 colon | DU-145 prostate | EKVX NSCLC | HCT-116 colon | HCT-15 colon | HL-60(TB) leukemia | HOP-92 NSCLC | HS 578T breast | HT29 colon | IGROV1 ovarian | KM12 colon | LOX IMVI melanoma | M14 melanoma | MCF7 breast | MDA-MB-231 breast | MDA-MB-435 | MDA-N | MOLT-4 leukemia | NCI-H226 lung | NCI-H23 lung | NCI-H460 lung | NCI-H522 lung | NCI/ADR-RES ovarian | OVCAR-3 ovarian | OVCAR-4 ovarian | OVCAR-5 ovarian | OVCAR-8 ovarian | PC-3 prostate | RPMI-8226 leukemia | RXF 393 renal | SF-268 CNS | SF-295 CNS | SF-539 CNS | SK-MEL-2 melanoma | SK-MEL-5 melanoma | SK-OV-3 ovarian | SN12C renal | SNB-19 CNS | SNB-75 CNS | SR leukemia | SW-620 colon | T-47D breast | TK-10 renal | U251 CNS | UACC-257 melanoma | UACC-62 melanoma | UO-31 renal

CCC1c2[nH]c3ccccc3c2C[C@H]2C(=O)NC(Cc3c[nH]c4ccccc34)C(=O)N12 (stereo partly drawn)
55 µM: NCI-H522 lung
37.8 µM: OVCAR-3 ovarian
49.3 µM: LOX IMVI melanoma
65.2 µM: IGROV1 ovarian
47.9 µM: MOLT-4 leukemia
50.6 µM: HOP-62 NSCLC
52.6 µM: SN12C renal
36.3 µM: MALME-3M melanoma
74 µM: HOP-92 NSCLC
35 µM: SF-295 CNS
32.6 µM: UACC-62 melanoma
53.1 µM: PC-3 prostate
> 100 µM: A498 renal | A549 NSCLC | ACHN renal | DU-145 prostate | K-562 leukemia | MCF7 breast | OVCAR-4 ovarian | SF-268 CNS | SK-MEL-28 melanoma | SK-OV-3 ovarian | SNB-19 CNS | SW-620 colon | T-47D breast | UO-31 renal
76.6 µM: NCI/ADR-RES ovarian
82.1 µM: NCI-H226 lung
36.2 µM: COLO 205 colon
94 µM: OVCAR-8 ovarian
55.8 µM: RPMI-8226 leukemia
55.1 µM: 786-0 renal
31.8 µM: SK-MEL-5 melanoma
63.2 µM: NCI-H23 lung
49.6 µM: SR leukemia
43.4 µM: KM12 colon
38.6 µM: SK-MEL-2 melanoma
35.1 µM: HCT-116 colon
41.1 µM: MDA-MB-435
49.4 µM: HS 578T breast
37.1 µM: RXF 393 renal
38.1 µM: MDA-MB-231 breast
80.4 µM: TK-10 renal
34.7 µM: U251 CNS
62.2 µM: HT29 colon
88.3 µM: EKVX NSCLC
49.2 µM: M14 melanoma
55.2 µM: MDA-N
42.2 µM: UACC-257 melanoma
46.4 µM: HL-60(TB) leukemia
67.3 µM: CAKI-1 renal
52.9 µM: BT-549 breast
58.5 µM: OVCAR-5 ovarian
78.2 µM: HCT-15 colon

COCCOc1nc(-c2ccccc2)nc2ccccc12
43.3 µM: HCT-15 colon
90 µM: M14 melanoma
45.5 µM: RPMI-8226 leukemia
70.4 µM: MOLT-4 leukemia
73 µM: HS 578T breast
87.6 µM: HOP-92 NSCLC
60.9 µM: SR leukemia
30.6 µM: RXF 393 renal
70 µM: A498 renal
88.3 µM: SK-MEL-5 melanoma
> 100 µM: A549 NSCLC | ACHN renal | BT-549 breast | CAKI-1 renal | COLO 205 colon | DU-145 prostate | EKVX NSCLC | HCT-116 colon | HL-60(TB) leukemia | HOP-62 NSCLC | HT29 colon | IGROV1 ovarian | K-562 leukemia | KM12 colon | LOX IMVI melanoma | MALME-3M melanoma | MCF7 breast | MDA-MB-231 breast | MDA-MB-435 | MDA-N | NCI-H23 lung | NCI-H522 lung | NCI/ADR-RES ovarian | OVCAR-3 ovarian | OVCAR-4 ovarian | OVCAR-5 ovarian | OVCAR-8 ovarian | PC-3 prostate | SF-268 CNS | SF-295 CNS | SF-539 CNS | SK-MEL-2 melanoma | SK-MEL-28 melanoma | SK-OV-3 ovarian | SN12C renal | SNB-19 CNS | SNB-75 CNS | SW-620 colon | T-47D breast | TK-10 renal | U251 CNS | UACC-257 melanoma | UACC-62 melanoma | UO-31 renal
62 µM: NCI-H460 lung

NC(=O)CC(N)C(N)=O (stereo not drawn)
> 100 µM: 786-0 renal | A498 renal | A549 NSCLC | ACHN renal | BT-549 breast | CAKI-1 renal | CCRF-CEM leukemia | COLO 205 colon | DU-145 prostate | HCT-116 colon | HCT-15 colon | HL-60(TB) leukemia | HOP-62 NSCLC | HOP-92 NSCLC | HS 578T breast | IGROV1 ovarian | K-562 leukemia | KM12 colon | LOX IMVI melanoma | M14 melanoma | MALME-3M melanoma | MCF7 breast | MDA-MB-231 breast | MDA-MB-435 | MDA-N | MOLT-4 leukemia | NCI-H226 lung | NCI-H23 lung | NCI-H460 lung | NCI-H522 lung | NCI/ADR-RES ovarian | OVCAR-3 ovarian | OVCAR-4 ovarian | OVCAR-8 ovarian | PC-3 prostate | RPMI-8226 leukemia | RXF 393 renal | SF-295 CNS | SF-539 CNS | SK-MEL-2 melanoma | SK-MEL-28 melanoma | SK-MEL-5 melanoma | SK-OV-3 ovarian | SN12C renal | SNB-19 CNS | SNB-75 CNS | SR leukemia | SW-620 colon | T-47D breast | TK-10 renal | U251 CNS | UACC-257 melanoma | UACC-62 melanoma
